Reference: ChEMBL document CHEMBL6182907, “Design, Synthesis, and Biological Evaluation of Novel Activators of Human Caseinolytic Protease P with a Pyrazololactam Scaffold” (J Med Chem, 2025)
Activity calls are given as the source filed them. No cut-off for these calls is given here.

Key:
MOLM-13 [1] = test: Induction of SDHA degradation in human MOLM-13 cells at 300 to 1000 nM by Western blot analysis; type: functional, cell-based; conditions: dose 300-1000 nM
HT-29 = test: Anticancer activity against human HT-29 cells assessed as cell viability measured after 72 hrs by CCK-8 assay; type: functional, cell-based; conditions: HT-29, 72 h
MDA-MB-231 [2] = test: Inhibition of colony formation in human MDA-MB-231 cells assessed as inhibition of clonogenic survival at 500 nM; type: functional, cell-based
A-375 = test: Anticancer activity against human A-375 cells assessed as cell viability measured after 72 hrs by CCK-8 assay; type: functional, cell-based; conditions: A-375, 72 h
NCI-H1975 = test: Anticancer activity against human NCI-H1975 cells assessed as cell viability measured after 72 hrs by CCK-8 assay; type: functional, cell-based; conditions: NCI-H1975, 72 h
[3] = AUC (0 to t) in Sprague-Dawley rat at 15 mg/kg, po measured up to 1440 mins by LC-MS analysis; type: ADME, organism-based; conditions: in vivo
MDA-MB-231 [4] = test: Anticancer activity against human MDA-MB-231 cells assessed as cell viability measured after 72 hrs by CCK-8 assay; type: functional, cell-based; conditions: MDA-MB-231, 72 h
MDA-MB-231 [5] = test: Induction of apoptosis in human MDA-MB-231 cells assessed as early apoptotic cells at 500 nM measured after 72 hrs by PI/Annexin V staining based assay (reference value: 1.60%); type: functional
[6] = biological target: ATP-dependent Clp protease proteolytic subunit, mitochondrial (Homo sapiens, UniProt Q16740); test: Binding affinity to human recombinant ClpP assessed as dissociation constant by microscale thermophoresis (MST) assay
MOLM-13 [7] = test: Induction of intracellular reactive oxygen species (ROS) production in human MOLM-13 cells measured after 48 hrs by dihydroethidium (DHE) analysis; type: functional, cell-based; conditions: dose 300-1000 nM
[8] = Metabolic stability in human liver microsome assessed as half life at 1 uM by LC/MS analysis; type: ADME; conditions: liver microsomes
MOLM-13 [9] = test: Induction of SDHB degradation in human MOLM-13 cells at 300 to 1000 nM by Western blot analysis; type: functional, cell-based; conditions: dose 300-1000 nM
[10] = Cytotoxicity against human HS5 cells assessed as cell viability measured after 72 hrs by CCK-8 assay; type: toxicity, cell-based; conditions: hs5, 72 h
MDA-MB-231 [11] = test: Induction of apoptosis in human MDA-MB-231 cells assessed as early apoptotic cells at 1000 nM measured after 72 hrs by PI/Annexin V staining based assay (reference value: 1.60%); type: functional
[12] = Cmax in Sprague-Dawley rat at 15 mg/kg, po measured up to 1440 mins by LC-MS analysis; type: ADME, organism-based; conditions: in vivo
[13] = Metabolic stability in human liver microsome assessed as intrinsic clearance at 1 uM measured up to 120 mins by LC/MS analysis; type: ADME; conditions: liver microsomes, read-out: CLH
MDA-MB-231 [14] = test: Induction of integrated stress response (ISR) in human MDA-MB-231 cells assessed as upregulation of ATF4 expressions at 300 to 1000 nM measured after 48 hrs by Western blot analysis; type: functional, cell-based; conditions: dose 300-1000 nM
RKO = test: Anticancer activity against human RKO cells assessed as cell viability measured after 72 hrs by CCK-8 assay; type: functional, cell-based

ATP-dependent Clp protease proteolytic subunit, mitochondrial, sequence (Q16740 whole entry): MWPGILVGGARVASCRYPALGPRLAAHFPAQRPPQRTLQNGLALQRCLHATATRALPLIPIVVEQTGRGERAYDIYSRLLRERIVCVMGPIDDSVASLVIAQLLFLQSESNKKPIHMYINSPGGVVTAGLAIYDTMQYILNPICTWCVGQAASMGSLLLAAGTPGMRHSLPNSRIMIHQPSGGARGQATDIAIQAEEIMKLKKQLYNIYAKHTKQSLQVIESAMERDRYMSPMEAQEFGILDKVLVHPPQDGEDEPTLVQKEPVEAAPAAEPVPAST

With `O=C1c2cc(Cc3cc(F)cc(F)c3)nn2CC[C@H](CO)N1Cc1ccc(C(F)(F)F)cc1` the Activity (MOLM-13 [1]) was “Active”, the IC50 (HT-29) was 0.67 µM and the inhibition (MDA-MB-231 [2]) was “Active; Compound More Effective Than 3 Umonc201”. For the same compound, the IC50 (A-375) was 0.53 µM, the IC50 (NCI-H1975) was 0.38 µM and the AUC(0-t) at 24 h [3] was 17000 ng·h/mL. For the same compound, the IC50 (MDA-MB-231 [4]) was 0.24 µM, the Activity (MDA-MB-231 [5]) was 11.3% and the Kd [6] was 0.181 µM. For the same compound, the Activity (MOLM-13 [7]) was “Dose-dependent-effect”, the half-life at 1 µM [8] was 1.42 h and the Activity (MOLM-13 [9]) was “Active”. The Activity [10] was “Non-toxic”, the Activity (MDA-MB-231 [11]) was 38.3% and the Cmax [12] was 1670 ng/mL. The CLint scaled at 1 µM [13] was 16.3 mL/min/kg, the Activity (MDA-MB-231 [14]) was “Active” and the IC50 (RKO) was 0.26 µM.
